{"source": "patent US20250352563A1", "about": "“Method and Use of Psilocybin in the Prevention and Treatment of Stroke” (Revive Therapeutics Ltd, priority 2022, published 2025)", "key": {"[1]": {"system": "rat primary cortical neuronal culture", "assay": "Glutamate neurotoxicity in primary cortical neuronal culture (MAP2 immunocytochemistry)"}, "[2]": {"system": "rat model of stroke (MCAo)", "details": "intraperitoneal injection prior to MCAo; cited from earlier work"}, "stroke rats (MCAo) [3]": {"system": "stroke rats (MCAo)", "assay": "ANA12 antagonism of psilocybin-mediated neuroprotection in MCAo stroke rats", "assay_type": "in vivo, rat"}, "[4]": {"system": "primary cortical neuronal culture", "assay": "ANA12 antagonism of psilocybin-mediated protection in primary cortical neuronal culture", "details": "Glu 100 μM + Psi 10 μM + ANA 10 μM; p<0.05, one-way ANOVA", "text": "A selective BDNF antagonist ANA12 was included on D10 along with psilocybin and glutamate (see timeline in FIG. 6C)."}, "stroke rats (MCAo) [5]": {"system": "stroke rats (MCAo)", "assay": "Pre-stroke i.c.v. treatment, brain infarction by TTC staining in MCAo stroke rats", "assay_type": "in vivo, rat", "details": "i.c.v. pretreatment, day 2"}, "[6]": {"system": "MAP2, synaptophysin (SYP), IBA1, and BDNF expression", "assay": "Post-stroke i.p. treatment, qRT-PCR of lesioned cerebral cortex", "assay_type": "in vivo, rat", "details": "1 mg/kg/d i.p. days 3-7, cortex day 9"}, "[7]": {"details": "non-lesioned brain; cited from earlier work"}, "stroke rats (MCAo) [8]": {"system": "stroke rats (MCAo)", "assay": "Post-stroke i.p. treatment, neurological and locomotor tests in MCAo stroke rats", "details": "1 mg/kg/d i.p. days 3 to 7 after MCAo", "experimental": "In the posttreatment group, Psilocybin (1 mg/kg/day, n=7) or vehicle (n=6) was administered i.p. from day 3 to day 7.\n(b) Neurological deficits were scored by the Bederson's neurological test (35, 36). In a postural reflex test, rats were examined for the degree of abnormal posture when suspended by 20-30 cm above the testing table. They were scored according to the following criteria. • 0 Rats extend both forelimbs straight. No observable deficit. • 1 Rats keep the one forelimb to the breast and extend the other forelimb straight. • 2 Rats show decreased resistance to lateral push in addition to behavior in score 1 without circling. • 3 Rats twist the upper half of their body in addition to behavior in score 2.\n(§1) Locomotion was measured using an infrared activity monitor (Accuscan, Columbus, OH) as we previously described (19, 37). Rats were individually placed in a 3D infrared behavior chamber (42×42×21 cm) for 60 min. Four parameters were recorded: (a) horizontal activity (HACTV, the total number of beam interruptions that occurred in the horizontal sensors), (b) total distance traveled (TOTDIST, the distance, in centimeters, traveled by the animals), and (c) No. of movements (MOVNO), (d) horizontal movements time (MOVTIME).\nPsilocybin (1 mg/kg/d, n=7) or vehicle (n=6) was delivered systemically (i.p.) from days 3 to 7 after the MCAo. Neurological and locomotor tests were examined on day 9 (FIG. 4A)."}, "stroke rats (MCAo) [9]": {"system": "stroke rats (MCAo)", "assay": "Pre-stroke i.c.v. treatment, neurological and locomotor tests in MCAo stroke rats", "details": "D2", "experimental": "Psilocybin or vehicle was given before or after the MCAo. For the pretreatment, animals were anesthetized. Psilocybin (100 μM×20 μL, n=7) or vehicle (saline, 20 μl, n=7) was administered intracerebroventricularly (i.c.v., AP, −0.8 mm; LV, −1.5 mm; DV, −3.5 mm) at 15 min before MCAo through a Hamilton microsyringe. The speed of injection was controlled by a syringe pump (Micro 4, WPI, Sarasota, FL).\nThe right middle cerebral artery (MCA) was transiently occluded (MCAo) as we previously described (33). In brief, the bilateral common carotids were clamped with nontraumatic arterial clips. The right MCA was ligated with a 10-O suture to generate focal infarction in the cerebral cortex. The ligature and clips were removed after 60 min ischemia to generate reperfusion injury. Core body temperature was monitored with a thermistor probe and maintained at 37° C. with a heating pad during anesthesia. After recovery from anesthesia, body temperature was maintained at 37° C. using a temperature-controlled incubator.\nas §1\nA total of 14 adult rats were used for this analysis. Psilocybin (100 μM×20 μL, n=7) or vehicle (saline, 20 μL, n=7) was delivered to the lateral ventricle (i.c.v., coordinates: AP:0.8 mm, Lat:1.5 mm, DV −3.5 mm) at 10-15 min prior to the a 60-min MCAo. Behavioral tests were conducted two days (or D2) after MCAo (FIG. 2A). […] Locomotoractivity was examined in infra-red activity chambers for one hour."}, "[10]": {"details": "ANA12 100 μM×20 μL/d intranasally days 0 and 1, Psilocybin i.c.v. prior to MCAo"}, "[11]": {"details": "stroke reduced expression, p<0.05"}}}
{"smiles": "N[C@@H](CCC(=O)O)C(=O)O", "note": "[Glutamate]", "values": [{"measurement": "MAP2 immunoreactivity (MAP2-ir)", "setting": "[1]; Glutamate 100 μM added on DIV10, fixed DIV12, p<0.001", "result": "significantly reduced"}]}
{"smiles": "CN(C)CCc1c[nH]c2ccccc12", "note": "[DMT, N,N-dimethyltryptamine]", "values": [{"measurement": "BDNF expression", "setting": "[2]", "result": "increased"}, {"measurement": "brain infarction", "setting": "[2]", "result": "reduced"}, {"measurement": "brain inflammation", "setting": "[2]", "result": "reduced"}, {"measurement": "staircase behavior", "setting": "[2]", "result": "improved"}]}
{"smiles": "O=C(Nc1ccccc1C(=O)NC1CCCCNC1=O)c1cc2ccccc2s1", "note": "(centres unmarked) [ANA12]", "values": [{"measurement": "Psilocybin-mediated improvement in horizontal activity", "setting": "stroke rats (MCAo) [3]; [10]", "result": "significantly antagonized"}, {"measurement": "Psilocybin-mediated improvement in total distance traveled", "setting": "stroke rats (MCAo) [3]; [10]", "result": "significantly antagonized"}, {"measurement": "psilocybin-mediated improvement in neurological behavior", "setting": "stroke rats (MCAo) [3]; [10]", "result": "significantly antagonized"}, {"measurement": "psilocybin-mediated reduction in brain infarction", "setting": "stroke rats (MCAo) [3]; ANA12 100 μM×20 μL/d intranasally days 0 and 1 after MCAo, Psilocybin i.c.v. 100 μM×20 μl 15 min prior", "result": "significantly antagonized"}, {"measurement": "psilocybin-mediated improvement in MAP2-ir", "setting": "[4]", "result": "significantly antagonized"}]}
{"smiles": "CN(C)CCc1c[nH]c2cccc(OP(=O)(O)O)c12", "note": "[Psilocybin, 4-phosphoryloxy-N,N-dimethyltryptamine]", "values": [{"measurement": "area of infarction in each 2-mm slice", "setting": "stroke rats (MCAo) [5]; p<0.001, two-way ANOVA, difference mainly on rostral slices", "result": "significantly lowered infarction"}, {"measurement": "infarct volume (TTC staining)", "setting": "stroke rats (MCAo) [5]; typical TTC staining FIG. 3A", "result": "reduced the infarct volume"}, {"measurement": "expression of BDNF in the lesioned brain (qRTPCR)", "setting": "[6]; p=0.01, stroke vs. stroke+PSI", "result": "significantly upregulated"}, {"measurement": "expression of MAP2 in the stroke brain (qRTPCR)", "setting": "[6]; [11]", "result": "significantly normalized"}, {"measurement": "expression of synaptophysin (SYP) in the stroke brain (qRTPCR)", "setting": "[6]; [11]", "result": "significantly normalized"}, {"measurement": "expression of IBA1 in the stroke brain (qRTPCR)", "setting": "[6]; stroke upregulated expression, p<0.05", "result": "significantly normalized"}, {"measurement": "crossing of the blood-brain barrier", "setting": "[7]", "result": "inefficient to freely cross the blood-brain barrier"}, {"measurement": "horizontal activity", "setting": "stroke rats (MCAo) [8]; day 9, p=0.011", "result": "increased"}, {"measurement": "total distance traveled", "setting": "stroke rats (MCAo) [8]; day 9, p=0.018", "result": "increased"}, {"measurement": "movement number", "setting": "stroke rats (MCAo) [8]; day 9, p=0.023", "result": "increased"}, {"measurement": "movement time", "setting": "stroke rats (MCAo) [8]; day 9, p=0.034", "result": "increased"}, {"measurement": "body asymmetry", "setting": "stroke rats (MCAo) [8]; day 9, p=0.0445", "result": "significantly reduced"}, {"measurement": "Bederson's neurological test", "setting": "stroke rats (MCAo) [8]; tested day 9, p=0.0421", "result": "significantly reduced"}, {"measurement": "body asymmetry", "setting": "stroke rats (MCAo) [9]; 100 μM×20 μL i.c.v. 10-15 min prior to MCAo, p=0.00345", "result": "significantly decreased"}, {"measurement": "horizontal activity (HACTV)", "setting": "stroke rats (MCAo) [9]; 100 μM×20 μL i.c.v. prior to MCAo, one hour, p=0.0246", "result": "significantly increased"}, {"measurement": "movement time (MOVTIME)", "setting": "stroke rats (MCAo) [9]; 100 μM×20 μL i.c.v. prior to MCAo, p=0.00351", "result": "significantly increased"}, {"measurement": "total distance traveled (TOTODIST)", "setting": "stroke rats (MCAo) [9]; 100 μM×20 μL i.c.v. prior to MCAo, p=0.0103", "result": "significantly increased"}, {"measurement": "movement number (MOVNO)", "setting": "stroke rats (MCAo) [9]; 100 μM×20 μL i.c.v. prior to MCAo, p=0.0479", "result": "significantly increased"}, {"measurement": "Glu-mediated neuronal loss (MAP2-ir)", "setting": "[1]; Glu 100 μM, Psi 10 μM, photomicrographs FIG. 1A", "result": "antagonized"}]}
